# Measurements from patent US8440652B2, “MST1 kinase inhibitors and methods of their use” (Lexicon Pharmaceuticals, Inc., priority 2011, dated 2013).
# Like-named read-outs stand apart in the source and are kept apart here.
# Target: T1, MST1 (Homo sapiens, UniProt Q13043)
# T1 sequence (Q13043 1-487): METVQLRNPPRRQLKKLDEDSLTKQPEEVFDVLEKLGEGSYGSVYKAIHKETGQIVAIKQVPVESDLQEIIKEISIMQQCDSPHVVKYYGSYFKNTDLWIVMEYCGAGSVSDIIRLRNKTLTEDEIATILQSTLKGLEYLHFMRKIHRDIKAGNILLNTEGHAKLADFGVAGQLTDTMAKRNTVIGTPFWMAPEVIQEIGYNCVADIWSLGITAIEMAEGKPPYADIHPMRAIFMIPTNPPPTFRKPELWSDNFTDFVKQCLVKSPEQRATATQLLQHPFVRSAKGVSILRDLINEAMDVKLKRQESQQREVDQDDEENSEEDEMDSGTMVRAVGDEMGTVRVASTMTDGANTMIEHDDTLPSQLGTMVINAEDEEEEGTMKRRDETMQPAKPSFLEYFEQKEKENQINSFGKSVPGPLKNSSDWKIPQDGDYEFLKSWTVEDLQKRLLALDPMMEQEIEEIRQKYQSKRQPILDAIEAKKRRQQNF
# Assay: In vitro measurement of MST1 inhibition (Z′-Lyte kinase assay)
# Format: biochemical
# Procedure: Assays were performed in low-volume 384-well black proxiplates (Perkin Elmer, PE-Blk-Proxi-6008269). Eight compounds were first diluted into LDV (Echo) plates using a Multiprobe, at a starting concentration of 1 mM compound in 100% DMSO. Using the ECHO, 75 nl compound was pinged into 384-well proxiplates. The starting concentration of compound in each assay plate is 7.5 uM, followed by 3-fold dilutions, to give quadruplicate ten-point concentration curves. A 3× solution of MST1 enzyme in kinase buffer (Invitrogen, PR4940C) was added to wells containing compound or DMSO controls, followed by a 10 minute preincubation step. Reactions were initiated by adding 5 μL of a mixture of ATP and Z′-Lyte S/T Pep 7 (Invitrogen, PV3180) and proceeded at RT for 1 hour. […] At the end of the kinase reaction, 10 ul of developing solution (Invitrogen, catalog #PR4876B; development buffer A diluted […] in development buffer B) was added to each well and incubated at RT for 1 hr. All wells were read on a Tecan at 400 nm excitation and 460 nm/530 nm emission. Plus and minus enzyme controls were used to calculate percent inhibition and IC50 curves were generated using Excel.
# [1] = 1 μM ATP, read-out: IC50 (μM) 1 μM ATP
# [2] = 50 μM ATP, read-out: IC50 (μM) 50 μM ATP
IC50 [1],IC50 [2],SMILES
< 0.01 µM,< 0.01 µM,"Cc1cc(-c2cnc(N)c(-c3ccc4c(c3)CCNC4=O)c2)ncc1S(=O)(=O)NC1CC1 [6′-amino-N-cyclopropyl-4-methyl-5′-(1-oxo-1,2,3,4-tetrahydroisoquinolin-6-yl)-[2,3′-bipyridine]-5-sulfonamide]"
–,< 0.15 µM,NC(=O)c1ccc(-c2cc(-c3ccc(S(N)(=O)=O)cc3)cnc2N)cc1 [4-(2-amino-5-(4-sulfamoylphenyl)pyridin-3-yl)benzamide]
< 0.05 µM,< 0.01 µM,"N#CC1(c2ccc(-c3cnc(N)c(-c4ccc5c(c4)C4(CC4)NC5=O)n3)cc2)CC1 [1-(4-(5-amino-6-(3′-oxospiro[cyclopropane-1,1′-isoindolin]-6′-yl)pyrazin-2-yl)phenyl)cyclopropanecarbonitrile]"
< 0.01 µM,< 0.01 µM,"Nc1ncc(-c2ccc(S(=O)(=O)NC3CC3)cc2)nc1-c1cc2c(cn1)C(=O)NCC2 [4-(5-amino-6-(8-oxo-5,6,7,8-tetrahydro-2,7-naphthyridin-3-yl)pyrazin-2-yl)-N-cyclopropylbenzenesulfonamide]"
< 0.15 µM,< 0.05 µM,"CN1CCc2cc(-c3nc(-c4ccc(S(=O)(=O)N(C)C5CC5)cc4)cnc3N)ccc2C1=O [4-(5-amino-6-(2-methyl-1-oxo-1,2,3,4-tetrahydroisoquinolin-6-yl)pyrazin-2-yl)-N-cyclopropyl-N-methylbenzenesulfonamide]"
< 0.15 µM,< 0.05 µM,"CN(C1CC1)S(=O)(=O)c1ccc(-c2cnc(N)c(-c3ccc4c(c3)CCCCC(=O)N4)c2)cc1 [4-(6-amino-5-(2-oxo-1,2,3,4,5,6-hexahydrobenzo[b]azocin-8-yl)pyridin-3-yl)-N-cyclopropyl-N-methylbenzenesulfonamide]"
< 0.15 µM,< 0.01 µM,"CC1(C#N)CCc2cc(-c3cnc(N)c(-c4ccc5c(c4)CCNC5=O)c3)ccc21 (stereo not drawn) [5-(6-amino-5-(1-oxo-1,2,3,4-tetrahydroisoquinolin-6-yl)pyridin-3-yl)-1-methyl-2,3-dihydro-1H-indene-1-carbonitrile]"
< 0.05 µM,< 0.01 µM,"CC(C)(C)c1ccc(-c2cnc(N)c(-c3ccc4c(c3)CCNC4=O)n2)cc1 [6-(3-amino-6-(4-(tert-butyl)phenyl)pyrazin-2-yl)-3,4-dihydroisoquinolin-1(2H)-one]"
–,< 0.05 µM,"CN(C)c1nc(-c2cnc(N)c(-c3ccc4c(c3)CCNC4=O)c2)cs1 [6-(2-amino-5-(2-(dimethylamino)thiazol-4-yl)pyridin-3-yl)-3,4-dihydroisoquinolin-1(2H)-one]"
–,< 0.15 µM,CNS(=O)(=O)c1ccc(-c2cnc(N)c(-c3ccc(C(N)=O)cc3)c2)cc1 [4-(2-amino-5-(4-(N-methylsulfamoyl)phenyl)pyridin-3-yl)benzamide]
< 0.05 µM,< 0.01 µM,"N#CC1(c2ccc(-c3cnc(N)c(-c4ccc5c(=O)[nH]ccc5c4)n3)cc2)CC1 [1-(4-(5-amino-6-(1-oxo-1,2-dihydroisoquinolin-6-yl)pyrazin-2-yl)phenyl)cyclopropanecarbonitrile]"
< 0.01 µM,< 0.01 µM,"Cc1cc(-c2cnc(N)c(-c3ccc4c(c3)C3(CC3)CNC4=O)n2)ccc1S(=O)(=O)NC1CC1 [4-(5-amino-6-(1′-oxo-2′,3′-dihydro-1′H-spiro[cyclopropane-1,4′-isoquinolin]-6′-yl)pyrazin-2-yl)-N-cyclopropyl-2-methylbenzenesulfonamide]"
< 0.05 µM,< 0.01 µM,"N#Cc1ccc(-c2cnc(N)c(-c3ccc4c(c3)C3(CC3)CNC4=O)n2)cc1 [4-(5-amino-6-(1′-oxo-2′,3′-dihydro-1′H-spiro[cyclopropane-1,4′-isoquinolin]-6′-yl)pyrazin-2-yl)benzonitrile]"
< 0.01 µM,< 0.01 µM,"N#CC1(c2ccc(-c3cnc(N)c(-c4ccc5c(c4)CCNC5=O)n3)cc2)CCCC1 [1-(4-(5-amino-6-(1-oxo-1,2,3,4-tetrahydroisoquinolin-6-yl)pyrazin-2-yl)phenyl)cyclopentanecarbonitrile]"
< 0.01 µM,< 0.01 µM,"C[C@@H]1COc2cc(-c3cc(-c4ccc(S(=O)(=O)N(C)C5CC5)cc4)cnc3N)ccc2C(=O)N1 [(R)-4-(6-amino-5-(3-methyl-5-oxo-2,3,4,5-tetrahydrobenzo[f][1,4]oxazepin-8-yl)pyridin-3-yl)-N-cyclopropyl-N-methylbenzenesulfonamide]"
< 0.05 µM,< 0.01 µM,"CCN(C)S(=O)(=O)c1ccc(-c2cnc(N)c(-c3ccc4c(c3)CCNC4=O)c2)s1 [5-(6-amino-5-(1-oxo-1,2,3,4-tetrahydroisoquinolin-6-yl)pyridin-3-yl)-N-ethyl-N-methylthiophene-2-sulfonamide]"
< 0.05 µM,< 0.01 µM,"Nc1ncc(-c2ccc(S(=O)(=O)CC3CC3)cc2)nc1-c1ccc2c(c1)CCNC2=O [6-(3-amino-6-(4-((cyclopropylmethyl)sulfonyl)phenyl)pyrazin-2-yl)-3,4-dihydroisoquinolin-1(2H)-one]"
< 0.05 µM,< 0.01 µM,"CC1(C)NC(=O)c2ccc(-c3nc(-c4ccc(S(=O)(=O)NC5CC5)cc4)cnc3N)cc21 [4-(5-amino-6-(3,3-dimethyl-1-oxoisoindolin-5-yl)pyrazin-2-yl)-N-cyclopropylbenzenesulfonamide]"
< 0.15 µM,< 0.05 µM,CN(C1CC1)S(=O)(=O)c1ccc(-c2cnc(N)c(C#Cc3ccnc(O)c3)n2)cc1 [4-(5-amino-6-((2-hydroxypyridin-4-yl)ethynyl)pyrazin-2-yl)-N-cyclopropyl-N-methylbenzenesulfonamide]
< 0.05 µM,< 0.01 µM,"N#C[C@]1(c2ccc(-c3cnc(N)c(-c4ccc5c(c4)CCNC5=O)n3)cc2)[C@@H]2COC[C@@H]21 [(1R,5S,6s)-6-(4-(5-amino-6-(1-oxo-1,2,3,4-tetrahydroisoquinolin-6-yl)pyrazin-2-yl)phenyl)-3-oxabicyclo[3.1.0]hexane-6-carbonitrile]"
< 0.05 µM,< 0.01 µM,"N#CC1(c2ccc(-c3cnc(N)c(-c4ccc5c(c4)NCCNC5=O)n3)cc2)CCOCC1 [4-(4-(5-amino-6-(5-oxo-2,3,4,5-tetrahydro-1H-benzo[e][1,4]diazepin-8-yl)pyrazin-2-yl)phenyl)tetrahydro-2H-pyran-4-carbonitrile]"
< 0.05 µM,< 0.01 µM,"CCN(CC)S(=O)(=O)c1ccc(-c2cnc(N)c(-c3ccc(C(N)=O)cn3)c2)cc1 [2′-amino-5′-(4-(N,N-diethylsulfamoyl)phenyl)-[2,3′-bipyridine]-5-carboxamide]"
–,< 0.05 µM,"CCN(CC)S(=O)(=O)c1ccc(-c2cnc(N)c(-c3ccc(C(N)=O)c(F)c3)c2)cc1 [4-(2-amino-5-(4-(N,N-diethylsulfamoyl)phenyl)pyridin-3-yl)-2-fluorobenzamide]"
< 0.05 µM,< 0.01 µM,CCNS(=O)(=O)c1ccc(-c2cnc(N)c(-c3ccc4c(O)ncnc4c3)c2)cc1 [4-(6-amino-5-(4-hydroxyquinazolin-7-yl)pyridin-3-yl)-N-ethylbenzenesulfonamide]
< 0.01 µM,< 0.01 µM,"CCN(C)S(=O)(=O)c1cnc(-c2cnc(N)c(-c3ccc4c(c3)CCNC4=O)n2)cc1C [6-(5-amino-6-(1-oxo-1,2,3,4-tetrahydroisoquinolin-6-yl)pyrazin-2-yl)-N-ethyl-N,4-dimethylpyridine-3-sulfonamide]"
< 0.05 µM,< 0.01 µM,NCC1CCC(NC(=O)c2nc(-c3ccc(S(=O)(=O)NC4CC4)cc3)cnc2N)CC1 (stereo not drawn) [3-amino-N-(4-(aminomethyl)cyclohexyl)-6-(4-(N-cyclopropylsulfamoyl)phenyl)pyrazine-2-carboxamide]
< 0.01 µM,< 0.01 µM,"CN(C1CC1)S(=O)(=O)c1ccc(-c2cnc(N)c(-c3ccc4c(c3)OCCNC4=O)n2)cc1 [4-(5-amino-6-(5-oxo-2,3,4,5-tetrahydrobenzo[f][1,4]oxazepin-8-yl)pyrazin-2-yl)-N-cyclopropyl-N-methylbenzenesulfonamide]"
< 0.05 µM,< 0.01 µM,"CCS(=O)(=O)Nc1ccc(-c2cnc(N)c(-c3ccc4c(c3)CCNC4=O)c2)cc1 [N-(4-(6-amino-5-(1-oxo-1,2,3,4-tetrahydroisoquinolin-6-yl)pyridin-3-yl)phenyl)ethanesulfonamide]"
< 0.15 µM,< 0.05 µM,"Nc1ncc(-c2ccc(S(F)(F)(F)(F)F)cc2)nc1-c1ccc2c(c1)CCNC2=O [6-(3-amino-6-(4-(pentafluorosulfanyl)phenyl)pyrazin-2-yl)-3,4-dihydroisoquinolin-1(2H)-one]"
